Measured values published in patent publication US12371454B2, “Cyclic peptide compound having Kras inhibitory action” (priority 2019, dated 2025).
Starred links: 1 amine or outer side, 2 acyl side, 3 side chain; linkers in the order of their positions; H or OH if unused. Positions of bridges follow the written chain, without caps; N, C: chain ends. Non-standard residues stand in square brackets, D forms with d. Residues, ends and D or L forms follow the SMILES beside them. *: point of attachment. hPhe(3-Cl-4-CF3) = N[C@@H](CCc1ccc(C(F)(F)F)c(Cl)c1)C(=O)O; hPhe(3-F,4-CF3) = N[C@@H](CCc1ccc(C(F)(F)F)c(F)c1)C(=O)O; NMePhe(4-Br) = CN[C@@H](Cc1ccc(Br)cc1)C(=O)O; NMePhe(4-Cl) = CN[C@@H](Cc1ccc(Cl)cc1)C(=O)O; X4 = O=C([C@H](Cc1cc(F)cc(Cl)c1)N[*:1])[*:2]; X77 = O=C([C@H](Cc1cc(Br)ccc1Cl)N[*:1])[*:2]; NMePhe(4-Me) = CN[C@@H](Cc1ccc(C)cc1)C(=O)O; Pro(4,4-F2) = O=C(O)[C@@H]1CC(F)(F)CN1; NMe4Pal = CN[C@@H](Cc1ccncc1)C(=O)O; NMeY = CN[C@@H](Cc1ccc(O)cc1)C(=O)O; NMeCha = CN[C@@H](CC1CCCCC1)C(=O)O; NMeChg = CN[C@H](C(=O)O)C1CCCCC1; NMeI = CC[C@H](C)[C@H](NC)C(=O)O; NMeD = CN[C@@H](CC(=O)O)C(=O)O; NMeL = CN[C@@H](CC(C)C)C(=O)O; NMeNva = CCC[C@H](NC)C(=O)O; NMeV = CN[C@H](C(=O)O)C(C)C; d(β3hA) = C[C@@H](N)CC(=O)O; NMeAbu = CC[C@H](NC)C(=O)O; NMeA = CN[C@@H](C)C(=O)O; NMeAib = CNC(C)(C)C(=O)O; Nle = CCCC[C@H](N)C(=O)O; Piperidide = C1CCN(*)CC1; Pyrrolidide = C1CCN(*)C1; Ac5c = NC1(C(=O)O)CCCC1; Aze = O=C(O)[C@@H]1CCN1; Nva = CCC[C@H](N)C(=O)O; Sar = CNCC(=O)O

The compounds below were run against T1, Kras and SOS1 (biotin-tagged human Kras loaded with GDP, His-tagged human SOS1) (Homo sapiens, UniProt P01116, G12D) (assay: Protein-protein interaction inhibition between Kras and SOS1 (KrasGl2D-SOS PPI) using AlphaScreen). Details: AlphaScreen; biotin-tagged human Kras loaded with GDP, His-tagged human SOS1; read-out: KRAS G12D-SOS PPI IC50.
T1 construct: made in house; host or cells: E. coli (stated for Kras only)
Format: binding
Method in brief: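 Binding between SOS1 and Kras is detected as bead-proximity luminescence: illuminate Ni-conjugated donors (680 nm), collect 520-620 nm emission from streptavidin-conjugated acceptors; Kras carries biotin and GDP loaded after purification, SOS1 carries a His tag.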

T1 sequence (P01116 1-188 isoform P01116-2 G12D): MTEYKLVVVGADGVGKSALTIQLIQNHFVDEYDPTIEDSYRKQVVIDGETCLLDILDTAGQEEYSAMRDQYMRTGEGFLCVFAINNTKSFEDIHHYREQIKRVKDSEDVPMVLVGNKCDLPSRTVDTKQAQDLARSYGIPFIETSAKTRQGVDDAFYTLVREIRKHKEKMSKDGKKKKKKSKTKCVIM

| Compound | IC50 [nM] |
| --- | --- |
| CC[C@H](C)[C@@H]1NC(=O)[C@H](C(C)C)N(C)C(=O)C[C@@H](C)NC(=O)[C@H](CC(C)C)N(C)C(=O)C2(CCCC2)NC(=O)[C@H](CC(C)C)N(C)C(=O)[C@H](CCc2ccc(C(F)(F)F)c(Cl)c2)NC(=O)CN(C)C(=O)[C@H](Cc2ccc(Cl)cc2)N(C)C(=O)[C@@H]2CCN2C(=O)CN(C)C1=O [Compound 158] (cyclo([Ac5c][NMeL][d(β3hA)][NMeV]I[Sar][Aze][NMePhe(4-Cl)][Sar][hPhe(3-Cl-4-CF3)][NMeL])) | 10 |
| CC[C@H](C)[C@@H]1NC(=O)[C@H](CC(C)C)N(C)C(=O)C[C@@H](C(=O)N2CCCCC2)N(C)C(=O)[C@H](CC(C)C)NC(=O)C(C)(C)N(C)C(=O)[C@H](CC(C)C)NC(=O)[C@H](CCc2ccc(C(F)(F)F)c(F)c2)NC(=O)CN(C)C(=O)[C@H](CC2CCCCC2)N(C)C(=O)CN(C)C(=O)CN(C)C1=O [Compound 969] ([NMeL]I[Sar][Sar][NMeCha][Sar][hPhe(3-F,4-CF3)]L[NMeAib]L[NMeD]-Piperidide; lactam N-11) | 2 |
| CCC[C@H]1C(=O)N[C@@H]([C@@H](C)CC)C(=O)N(C)CC(=O)N(C)CC(=O)N(C)[C@@H](Cc2ccc(C)cc2)C(=O)N(C)CC(=O)N[C@@H](CCc2ccc(C(F)(F)F)c(Cl)c2)C(=O)N2CC(F)(F)C[C@H]2C(=O)NC2(CCCC2)C(=O)N(C)[C@@H](C2CCCCC2)C(=O)N(C)[C@H](C(=O)N2CCCC2)CC(=O)N1C [Compound 1296] ([NMeNva]I[Sar][Sar][NMePhe(4-Me)][Sar][hPhe(3-Cl-4-CF3)][Pro(4,4-F2)][Ac5c][NMeChg][NMeD]-Pyrrolidide; lactam N-11) | 0.59 |
| CCCC[C@@H]1NC(=O)[C@H](Cc2cc(Br)ccc2Cl)NC(=O)CN(C)C(=O)[C@H](Cc2ccc(OC)cc2)N(C)C(=O)[C@@H]2CCN2C(=O)[C@H](C)N(C)C(=O)[C@H]([C@@H](C)CC)NC(=O)[C@H](CC)N(C)C(=O)C[C@@H](C(=O)N2CCCCC2)N(C)C(=O)[C@H](CC(C)C)NC(=O)C(C)(C)N(C)C1=O [Compound 1212] ([NMeAbu]I[NMeA][Aze][NMeY](Me)[Sar][X77][Nle][NMeAib]L[NMeD]-Piperidide; lactam N-11) | 120 |
| CC[C@H](C)[C@@H]1NC(=O)[C@H](CC(C)C)N(C)C(=O)C[C@@H](C(=O)N(C)C)N(C)C(=O)[C@H]([C@@H](C)CC)N(C)C(=O)[C@H](C(C)C)NC(=O)[C@H](Cc2ccncc2)N(C)C(=O)[C@H](CCc2ccc(C(F)(F)F)c(Cl)c2)NC(=O)CN(C)C(=O)[C@H](Cc2ccc(C)cc2)N(C)C(=O)[C@@H]2CCN2C(=O)[C@H](C)N(C)C1=O [Compound 1897] ([NMeL]I[NMeA][Aze][NMePhe(4-Me)][Sar][hPhe(3-Cl-4-CF3)][NMe4Pal]V[NMeI][NMeD]-NMe2; lactam N-11) | 9.9 |
| CCC[C@@H]1NC(=O)[C@H](CC(C)C)N(C)C(=O)C[C@@H](C(=O)N2CCCCC2)N(C)C(=O)[C@H](C2CCCCC2)N(C)C(=O)C2(CCCC2)NC(=O)[C@@H]2CCCN2C(=O)[C@H](CCc2ccc(C(F)(F)F)c(Cl)c2)NC(=O)CN(C)C(=O)[C@H](CC2CCCCC2)N(C)C(=O)CN(C)C(=O)CN(C)C1=O [Compound 495] ([NMeL][Nva][Sar][Sar][NMeCha][Sar][hPhe(3-Cl-4-CF3)]P[Ac5c][NMeChg][NMeD]-Piperidide; lactam N-11) | 3.2 |
| CCCC[C@@H]1NC(=O)[C@H](Cc2cc(F)cc(Cl)c2)NC(=O)CN(C)C(=O)[C@H](Cc2ccc(Cl)cc2)N(C)C(=O)CN(C)C(=O)CN(C)C(=O)[C@H]([C@@H](C)CC)NC(=O)[C@H](CC(C)C)N(C)C(=O)C[C@@H](C(=O)N2CCCCC2)N(C)C(=O)[C@H](CC(C)C)NC(=O)C(C)(C)N(C)C1=O [Compound 202] ([NMeL]I[Sar][Sar][NMePhe(4-Cl)][Sar][X4][Nle][NMeAib]L[NMeD]-Piperidide; lactam N-11) | 39 |
| CCC[C@H]1C(=O)N(C)CC(=O)N[C@@H](CCc2ccc(C(F)(F)F)c(Cl)c2)C(=O)N2CCC[C@H]2C(=O)NC2(CCCC2)C(=O)N(C)[C@@H](C(C)C)C(=O)N(C)[C@H](C(=O)N2CCCCC2)CC(=O)N(C)[C@@H](CC(C)C)C(=O)N[C@@H]([C@@H](C)CC)C(=O)N(C)[C@@H](C)C(=O)N2CC[C@H]2C(=O)N1C [Compound 1027] ([NMeL]I[NMeA][Aze][NMeNva][Sar][hPhe(3-Cl-4-CF3)]P[Ac5c][NMeV][NMeD]-Piperidide; lactam N-11) | 8.2 |
| CC[C@H](C)[C@@H]1NC(=O)[C@H](CC(C)C)N(C)C(=O)C[C@@H](C(=O)N(C)C)N(C)C(=O)[C@H]([C@@H](C)CC)N(C)C(=O)C2(CCCC2)NC(=O)[C@H](Cc2ccc(Br)cc2)N(C)C(=O)[C@H](CCc2ccc(C(F)(F)F)c(Cl)c2)NC(=O)CN(C)C(=O)[C@H](Cc2ccc(C)cc2)N(C)C(=O)[C@@H]2CCN2C(=O)[C@H](C)N(C)C1=O [Compound 1964] ([NMeL]I[NMeA][Aze][NMePhe(4-Me)][Sar][hPhe(3-Cl-4-CF3)][NMePhe(4-Br)][Ac5c][NMeI][NMeD]-NMe2; lactam N-11) | 36 |
